Reference: patent US7528148B2, “Pyrazolo[3,4-B]pyridine compounds, and their use as phosphodiesterase inhibitors” (Glaxo Group Limited, priority 2002, dated 2009)

What was measured:
[1] = test system: pica feeding response of rats; assay: In Vivo Assay 2: rat pica model of emesis; details: oral dosing, upper end given as greater than about 50 mg/kg
Excerpt: In Vivo Assay 2. Rat Pica Model of Emesis
However, a side effect of some PDE4 inhibitors in many species is emesis. Because many rat models of inflammation are well characterized, they have been used in procedures (see e.g. In Vivo Assay 1 above) to show beneficial anti-inflammatory effects of PDE 4 inhibitors. However rats have no emetic response (they have no vomit reflex), so that the relationship between beneficial anti-inflammatory effects of PDE 4 inhibitors and emesis is difficult to study directly in rats.
Pica feeding is a behavioural response to illness in rats wherein rats eat non-nutritive substances such as earth or in particular clay (e.g. kaolin) which may help to absorb toxins. Pica feeding can be induced by motion and chemicals (especially chemicals which are emetic in humans), and can be inhibited pharmacologically with drugs that inhibit emesis in humans. The Rat Pica Model, In Vivo Assay 2, can determine the level of pica response of rats to PDE 4 inhibition at pharmacologically relevant doses in parallel to in vivo anti-inflammatory Assays in (a separate set of) rats (e.g. In Vivo Assay 1 above). Anti-inflammatory and pica assays in the same species together can provide data on the “therapeutic index” (TI) in the rat of the compounds/salts of the invention. The Rat TI can for example be calculated as the ratio of a) the potentially-emetic Pica Response ED50 dose from Assay 2 to b) the rat anti-inflammatory ED50 dose (e.g. measured by rat neutrophilia-inhibition in eg In Vivo Assay 1), with larger TI ratios possibly indicating lower emesis at many anti-inflammatory doses. This might allow a choice of a non-emetic or minimal-emetic pharmaceutical dose of the compounds or salts of the invention which has an anti-inflammatory effect. It is recognised however that achieving a low-emetic PDE4 inhibitory compound is not essential to the invention.
Procedure: On the first day of the experiment, the rats are housed individually in cages without bedding or “enrichment”. The rats are kept off of the cage floor by a wire screen. Pre-weighed food cups containing standard rat chow and clay pellets are placed in the cage. The clay pellets, obtainable from Languna Clay Co, City of Industry, Calif., USA, are the same size and shape as the food pellets. The rats are acclimated to the clay for 72 hours, during which time the cups and food and clay debris from the cage are weighed daily on an electronic balance capable of measuring to the nearest 0.1 grams. By the end of the 72 hour acclimation period the rats generally show no interest in the clay pellets.
At the end of 72 hours the rats are placed in clean cages and the food cups weighed. Rats that are still consuming clay regularly are removed from the study. […] The food and clay cups and cage debris are weighed the following day and the total clay and food consumed that night by each individual animal is calculated.
A dose response is calculated by first converting the data into quantal response, where animals are either positive or negative for the pica response. A rat is “pica positive” if it consumes greater than or equal to 0.3 grams of clay […] using logistic regression performed by the Statistica software statistical package. A Pica Response ED50 value in mg per kg of body weight can then be calculated. […]

[2] = test system: LPS-induced pulmonary neutrophilia in rats; assay: In Vivo Assay 1: LPS-induced pulmonary neutrophilia in rats, orally administered PDE4 inhibitors; details: po, rat, LPS aerosol 30 min after dosing, BAL 4 hours post LPS, read-out: neutrophilia-inhibition ED50
Excerpt: In Vivo Assay 1. LPS-induced Pulmonary Neutrophilia in Rats: Effect of Orally Administered PDE4 Inhibitors
The purpose of this neutrophilia model is to study the potentially anti-inflammatory effects in vivo of orally administered PDE4 inhibitors on neutrophilia induced by inhalation of aerosolized lipopolysaccharide (LPS), modelling the neutrophil inflammatory component(s) of COPD. See the literature section below for scientific background.
Male Lewis rats (Charles River, Raleigh, N.C., USA) weighing approximately 300-400 grams are pretreated with either (a) test compound suspended in 0.5% methylcellulose (obtainable from Sigma-Aldrich, St Louis, Mo., USA) in water or (b) vehicle only, delivered orally in a dose volume of 10 ml/kg. Generally, dose response curves are generated using the following doses of PDE4 inhibitors: 10.0, 2.0, 0.4, 0.08 and 0.016 mg/kg. Thirty minutes following pretreatment, the rats are exposed to aerosolized LPS (Serotype E. Coli 026:B6 prepared by trichloroacetic acid extraction, obtainable from Sigma-Aldrich, St Louis, Mo., USA), generated from a nebulizer containing a 100 μg/ml LPS solution. Rats are exposed to the LPS aerosol at a rate of 4 L/min for 20 minutes. LPS exposure is carried out in a closed chamber with internal dimensions of 45 cm length×24 cm width×20 cm height. The nebulizer and exposure chamber are contained in a certified fume hood. At 4 hours-post LPS exposure the rats are euthanized by overdose with pentobarbital at 90 mg/kg, administered intraperitoneally. Bronchoalveolar lavage (BAL) is performed through a 14 gauge blunt needle into the exposed trachea. Five, 5 ml washes are performed to collect a total of 25 ml of BAL fluid. Total cell counts and leukocyte differentials are performed on BAL fluid in order to calculate neutrophil influx into the lung. Percent neutrophil inhibition at each dose (cf. vehicle) is calculated and a variable slope, sigmoidal dose-response curve is generated, usually using Prism Graph-Pad. The dose-response curve is used to calculate an ED50 value (in mg per kg of body weight) for inhibition by the PDE4 inhibitor of the LPS-induced neutrophilia
Alternative method and results: In an alternative embodiment of the procedure, a single oral dose of 10 mg/kg or 1 mg/kg of the PDE4 inhibitor (or vehicle) is administered to the rats, and percent neutrophil inhibition is calculated and reported for that specific dose.

| Structure (SMILES) | ED50 [1] [mg/kg] | ED50 [2] [mg/kg] |
| --- | --- | --- |
| CCn1ncc2c(NC3CCOCC3)c(-c3nnc(C)o3)cnc21 [Example 14, 1-Ethyl-5-(5-methyl-1,3,4-oxadiazol-2-yl)-N-(tetrahydro-2H-pyran-4-yl)-1H-pyrazolo[3,4-b]pyridin-4-amine] | 2 to 50 | 0.03 to 1 |
| CCn1ncc2c(NC3CCOCC3)c(-c3nnc(C(C)(C)C)o3)cnc21 [Example 17, 5-(S-Tert-butyl-1,3,4-oxadiazol-2-yl)-1-ethyl-N-(tetrahydro-2H-pyran-4-yl)-1H-pyrazolo[3,4-b]pyridin-4-amine] | 2 to 50 | 0.03 to 1 |
| CCn1ncc2c(NC3CCOCC3)c(-c3nnc(CS(C)(=O)=O)o3)cnc21 [Example 23, 1-Ethyl-5-{5-[(methylsulfonyl)methyl]-1,3,4-oxadiazol-2-yl}-N-(tetrahydro-2H-pyran-4-yl)-1H-pyrazolo[3,4-b]pyridin-4-amine] | 2 to 50 | 0.03 to 1 |
| CCn1ncc2c(NC3CCOCC3)c(-c3nnc(CN4CCN(C)CC4)o3)cnc21 [Example 35, 1-Ethyl-5-{5-[(4-methylpiperazin-1-yl)methyl]-1,3,4-oxadiazol-2-yl}-N-(tetrahydro-2H-pyran-4-yl)-1H-pyrazolo[3,4-b]pyridin-4-amine] | 2 to 50 | 0.03 to 1 |
| CCn1ncc2c(NC3CCOCC3)c(-c3nnc(C4CCOCC4)o3)cnc21 [Example 38, 1-Ethyl-N-(tetrahydro-2H-pyran-4-yl)-5-[5-(tetrahydro-2H-pyran-4-yl)-1,3,4-oxadiazol-2-yl]-1H-pyrazolo[3,4-b]pyridin-4-amine] | 2 to 50 | 0.03 to 1 |
